Experimental data reported in patent publication US20180221362A1, “EZH2 INHIBITORS AND MODULATION OF REGULATORY T-CELL FUNCTION” (Constellation Pharmaceuticals, Inc., priority 2015, published 2018).

What was measured:
[1] = tested on: CT26 mouse colon carcinoma cells; assay: In vitro growth/sensitivity of CT26 carcinoma cells; assay type: cell-based; settings: FIG. 9
Description: (§1) We first evaluated whether treatment treatment of CT26 cancer cells would be sensitive to EZH2 ihibition. Protocols using CT26 cancer cells as a model for testing immunotherapy protocols and in studies on host immune response are known.
CD8 T cells are known to be major effectors of anti-tumor efficacy in mice and humans. We also explored immune cell changes beyond what our in vitro experiments had predicted, and found several unanticipated observations. First, natural killer (NK) and NKT cells, also major drivers of anti-tumor activity were increased in Inhibitor 1-treated animals, while reduced in the αPD1 group (FIG. 12). This effect was also clear if groups treated with the EZH2 inhibitor were analyzed together, and against groups not treated with the EZH2 inhibitor (FIG. 7). Second, M2 tumor associated macrophages (TAM), known to be immuno-suppressive, reduced in Inhibitor 1-treated animals, while increased in αPD1-treated animals (FIG. 13). This effect was also observed if groups treated with the EZH2 inhibitor were analyzed together, and against groups not treated with the EZH2 inhibitor (FIG. 8). Similar results were also seen with Inhibitor 4. Growth of CT26 mouse colon carcinoma cells was assessed in the presence of increasing amounts of Inhibitor 4 concentrations. […].

[2] = tested on: CT26 mouse colon carcinoma cells; assay: CT26 allograft transplantation tumor model; assay type: in vivo; settings: BALB/c mice, 21-day treatment; Inhibitor 1 200 mg/kg s.c. BID, PD-1 antibody 200 μg/mouse IP every 3-4 days; FIG. 10
Procedure: (§2) Tumor implantation and dosing. CT26 mouse colon carcinoma cells (ATCC CRL-2638) were expanded in vitro and 1×10^5 cells/mouse were inoculated with 50% Matrigel into the subcutaneous flank region of 6-8 week old female BABL/C mice (Taconic). Mice were randomized once tumors were palpable (>200 mm^3) and dosing was started on the same day. […] Tumors were measured and body weight recorded every 2-3 days.
as §1
CD8 T cells are known to be major effectors of anti-tumor efficacy in mice and humans. We also explored immune cell changes beyond what our in vitro experiments had predicted, and found several unanticipated observations. […] This effect was also clear if groups treated with the EZH2 inhibitor were analyzed together, and against groups not treated with the EZH2 inhibitor (FIG. 7). […] This effect was also observed if groups treated with the EZH2 inhibitor were analyzed together, and against groups not treated with the EZH2 inhibitor (FIG. 8). […] Growth of CT26 mouse colon carcinoma cells was assessed in the presence of increasing amounts of Inhibitor 4 concentrations. […]

[3] = tested on: tumor-infiltrating immune cells; assay: FACS analysis of tumor-infiltrating immune cells in CT26 tumors; assay type: in vivo, mouse; settings: tumors isolated day 22
Procedure: as §2
Isolation and analysis of tumor-infiltrating cells. Tumors were chopped into small pieces, digested with 3 mg/mL collagenase A and 100 μg/mL DNase I at 37° C. for 30 mins, followed by the addition of FBS. The digested tumor mass was filtered using […] filters, spun down and washed with PBS Immune cells were visualized and quantifed by FACS on the BD FACSCanto™ II flow cytometry analyzer (BD Bioscience).
The observed efficacy pictured in FIG. 11 was accompanied by changes in the immune infiltrate present in the tumors. Tumors were isolated from mice upon termination of the study (day 22), digested and stained for immune markers allowing for quantification of immune cell populations by FACS. […] Consistent with the reduced efficacy observed in the αPD1 group, we found increased proliferating Treg cells in this group along with decreased proliferating cytotoxic CD8 cells, especially when compared to the combination group (FIG. 11). This effect was also clear if groups treated with the EZH2 inhibitor were analyzed together, and against groups not treated with the EZH2 inhibitor (FIG. 6).

FOXP3 = FOXP3 expression by flow cytometry during Treg differentiation; assay type: cell-based, human; settings: increasing concentrations, vs DMSO control; FIG. 3A
H3K27me3 = H3K27me3 levels in treated FOXP3+ T-cells; assay type: cell-based, human; settings: FIG. 3B
human Treg cells = assay: Luminex cytokine assays of day 4 iTreg culture supernatants; assay type: cell-based; settings: day 4 supernatants; FIG. 3C
Description: Luminex cytokine assays. Cytokines were quantified from day 4 cell supernatants using Luminex multiplex assays (HTH17MAG-14K-12, Millipore), as per the manufacturer's protocol.
The transcription factor FOXP3 is known to be an essential regulator of Treg cells, and therefore is important to understand if EZH2 plays any role in its expression.

CCS(=O)(=O)N1CCC([C@@H](C)n2c(C)c(C(=O)NCc3c(OC)cc(C)[nH]c3=O)c3ccccc32)CC1 [Inhibitor 1]
CT26 cell sensitivity in vitro [1]: substantially no CT26 cell sensitivity
tumor growth inhibition efficacy (CT26 tumor volume) [2]: significantly efficacious
NKT cells in tumors ([3]; FIG. 12): increased
natural killer (NK) cells in tumors ([3]; FIG. 12): increased
M2 tumor associated macrophages (TAM) in tumors ([3]; FIG. 13): reduced
FOXP3 expression (frequencies of FOXP3+ cells) (FOXP3): no impact
H3K27me3 in the same (FOXP3+) cells (H3K27me3): robustly decreased
secretion of IFNγ to the culture medium (human Treg cells): dose-dependent increase
secretion of IL-10 to the culture medium (human Treg cells): dose-dependent increase
secretion of IL-13 to the culture medium (human Treg cells): dose-dependent increase
